# Test results published in patent publication US20220211657A1, “METHODS OF TREATING GASTROINTESTINAL CANCERS AND TUMORS THEREOF USING COMBINATION THERAPY” (GEORGETOWN UNIVERSITY, priority 2019, published 2022).
# How the values were obtained:
# [1] = test system: metastatic pancreatic cancer; conditions: first-line standard of care; cited from earlier work
# BRCA1/2-mutated tumors = conditions: out of 24 patients with BRCA1/2-mutated tumors; cited from earlier work
# [2] = test system: BRCA1/2-mutated pancreatic cancer; conditions: cited from earlier work
# [3] = Phase I dose escalation of veliparib plus FOLFOX (dose limiting toxicities, recommended Phase II dose); format: in vivo
# Protocol: The study was designed as a single center, Phase I/II, open label study of veliparib plus FOLFOX. At the time of study initiation, the dose and schedule for modified FOLFOX (de Gramont et al., “Leucovorin and Fluorouracil With or Without Oxaliplatin as First-Line Treatment in Advanced Colorectal Cancer,” J. Clin. Oncol. 18:2938-2947 (2000), which is hereby incorporated by reference in its entirety) was used (5-fluorouracil bolus 400 mg/m^2 Day 1; leucovorin 400 mg/m^2 Day 1; oxaliplatin 85 mg/m^2 Day 1; and 5-fluorouracil 2400 mg/m^2 continuous infusion over 46 hours, Days 1-3). Each cycle was 14 days. […] With regards to the veliparib, for the Phase I portion, the dose of veliparib was escalated in a standard 3+3 design from the lowest dose of 40 mg twice a day (BID) days 1-7 of each 14-day cycle. Dose levels were 40 mg, 60 mg, 80 mg, 100 mg, 150 mg, 200 mg, and 250 mg. For the Phase II portion, the recommended Phase II dose (RP2D) was 200 mg of veliparib, though the protocol did allow for stepwise de-escalation to 150 mg and then to 100 mg for toxicity after the first cycle. […] Tumor response was assessed radiographically every 8-12 weeks using Response Evaluation Criteria in Solid Tumors criteria version 1.1 (Eisenhauer et al., “New Response Evaluation Criteria in Solid Tumours: Revised RECIST Guideline (Version 1.1),” Eur. J. Cancer 45:228-247 (2009), which is hereby incorporated by reference in its entirety). […] The primary objective of the Phase I portion was to determine the recommended Phase II dose, with the primary endpoint being adverse events, as measured by the National Cancer Institute Common Terminology Criteria for Adverse Events, Version 4.03, which is hereby incorporated by reference in its entirety. […]
# The primary objective of the Phase I portion of the trial was to determine the recommended Phase II dose, by assessing the safety and tolerability as determined by adverse events, defined by the National Cancer Institute Common Terminology Criteria for Adverse Events, Version 4.03, which is hereby incorporated by reference in its entirety. […]
# [4] = Pharmacokinetic assessment of veliparib (Day 1, 3, 7 samples); format: in vivo, human; conditions: 14 subjects in 5 dosing cohorts
# Protocol: For the Phase I portion of the study, plasma samples were obtained from patients on Day 1 (pre-dose), Day 3, and Day 7 for pharmacokinetic (PK) assessment of veliparib. Results were compared to historical controls to identify any effect on veliparib pharmacokinetics by oxaliplatin or 5-fluorouracil. […] Next generation sequencing (NGS) of cancer-related genes was performed on tumor samples. Results from patients were captured, if ordered by the treating physician prior to enrollment, and sequencing was performed commercially by Foundation Medicine (FM), Caris Life Sciences, or through commercial germline testing labs such as Myriad or Invitae. […] Patients were defined as harboring HR-DDR mutations if a known pathogenic mutation in one of the HR-DDR genes (including but not limited to: ARID1A, ATM, ATRX, MRE11A, NBN, PTEN, RAD50/51/51B, BARD1, BLM, BRCA1, BRCA2, BRIP1, FANCA/C/D2/E/F/G/L, PALB2, WRN, CHEK2, CHEK1, BAP1, FAM175A, SLX4, MLL2, or XRCC) was identified in a blood sample (germline) or tumor sample (somatic).
compound,measurement,setting,value
Nc1ccn([C@@H]2O[C@H](CO)[C@@H](O)C2(F)F)c(=O)n1 [gemcitabine],response rate,[1],7%
O=C(c1cc(Cc2n[nH]c(=O)c3ccccc23)ccc1F)N1CCN(C(=O)C2CC2)CC1 [olaparib],patients who responded,BRCA1/2-mutated tumors,4 patients
CNCc1ccc(-c2[nH]c3cc(F)cc4c3c2CCNC4=O)cc1 [rucaparib],patients who did not respond to platinum but did respond,[2]; in vivo,two
same,responses,[2]; out of 19 patients with BRCA1/2-mutated pancreatic cancer,4
C[C@]1(c2nc3c(C(N)=O)cccc3[nH]2)CCCN1 [veliparib],protocol-defined dose limiting toxicity,"[3]; human, in vivo",treatment delay of >3 weeks
same,dose limiting toxicities,[3]; in vivo,one
same,recommended Phase II dose,[3]; veliparib BID days 1-7 of each 14-day cycle plus FOLFOX,200 mg
same,impact of co-administration of FOLFOX on veliparib pharmacokinetics,[4],no apparent impact
